Like-named read-outs stand apart in the source and are kept apart here.
How the values were obtained:
[1] = biological target: T1, glutathione-S-transferase (GST) tagged LXRbeta LBD (ligand binding domain) (Homo sapiens, UniProt P55055); experiment: LanthaScreen TR-FRET Liver X Receptor Coactivator Assay, co-activator recruitment to LXRbeta LBD; format: biochemical
T1 construct: purchased Invitrogen pv4658.pps
T1 sequence (P55055 222-460 limits assumed): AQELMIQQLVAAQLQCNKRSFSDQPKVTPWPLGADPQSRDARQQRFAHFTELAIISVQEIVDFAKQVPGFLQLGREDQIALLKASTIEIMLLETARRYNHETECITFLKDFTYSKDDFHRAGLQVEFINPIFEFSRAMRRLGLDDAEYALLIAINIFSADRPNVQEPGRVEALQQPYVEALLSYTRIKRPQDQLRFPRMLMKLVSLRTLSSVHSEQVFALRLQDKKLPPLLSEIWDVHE
Method: (§1) Potency (Inflection Point, IP) and efficacy (Emax) are evaluated via compound-induced co-activator recruitment to glutathione-S-transferase (GST) tagged LXRbeta and LXRalpha LBD (ligand binding domain) proteins in relation to reference dual agonist compound T0901317 (N-(2,2,2-Trifluoroethyl)-N-[4-[2,2,2-trifluoro-1-hydroxy-1-(trifluoromethyl)ethyl] phenyl] benzenesulfonamide) using the LanthaScreen™ TR-FRET Liver X Receptor Coactivator Assays according to manufacturer's instructions (Invitrogen catalog number pv4658.pps and pv4655). While running the LanthaScreen™ TR-FRET Liver X Receptor Coactivator Assay, LXR alpha-LBD or LXR beta-LBD was added to ligand test compounds followed by addition of a mixture of a fluorescein-labelled coactivator peptide and terbium-conjugated anti-GST antibody. After an incubation period at room temperature, TR-FRET (time-resolved fluorescence resonance energy transfer) was measured using a filter-based instrument capable of TR-FRET, e.g. PerkinElmer Envision.

[2] = biological target: T2, glutathione-S-transferase (GST) tagged LXRalpha LBD (ligand binding domain) (Homo sapiens, UniProt Q13133); experiment: LanthaScreen TR-FRET Liver X Receptor Coactivator Assay, co-activator recruitment to LXRalpha LBD; format: biochemical
T2 construct: purchased Invitrogen pv4655
T2 sequence (Q13133 209-447 limits assumed): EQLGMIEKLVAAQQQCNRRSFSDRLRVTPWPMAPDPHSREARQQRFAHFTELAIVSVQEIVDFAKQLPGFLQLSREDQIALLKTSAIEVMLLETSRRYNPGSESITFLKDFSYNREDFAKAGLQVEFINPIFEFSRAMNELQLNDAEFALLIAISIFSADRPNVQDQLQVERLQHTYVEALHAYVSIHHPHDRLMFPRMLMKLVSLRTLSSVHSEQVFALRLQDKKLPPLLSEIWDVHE
Method: as §1

[3] = efficacy at max dose, in relation to reference dual agonist T0901317, read-out: LXR beta Activity @ max dose (%)
[4] = potency (Inflection Point, IP), co-activator recruitment to LXRbeta LBD, in relation to T0901317, read-out: LXR beta IP
[5] = efficacy at max dose, in relation to reference dual agonist T0901317, read-out: LXR alpha Activity @ max dose (%)
[6] = potency (Inflection Point, IP), co-activator recruitment to LXRalpha LBD, in relation to T0901317, read-out: LXR alpha IP
[7] = potency (Inflection Point, IP), co-activator recruitment to LXRalpha LBD, in relation to T0901317
[8] = co-activator recruitment to GST-LXRbeta LBD, TR-FRET, read-out: LXR beta IP (Inflection Point, potency)
[9] = co-activator recruitment to GST-LXRalpha LBD, TR-FRET, read-out: LXR alpha IP (Inflection Point, potency)

Compound | Emax [1, 3] | EC50 [1, 4] | Emax [2, 5] | EC50 [2, 6] | LXR alpha IP (nM) [2, 7] | Emax ([1]; efficacy in relation to reference dual agonist T0901317, read-out: LXR beta Activity @ max dose) | Emax ([2]; efficacy in relation to reference dual agonist T0901317, read-out: LXR alpha Activity @ max dose) | EC50 [1, 8] | EC50 [2, 9] | Emax ([1]; read-out: LXR beta Activity @ max dose) | Emax ([2]; read-out: LXR alpha Activity @ max dose)
CN(C)C(=O)c1ccc(N2CCC(CC3CCN(C(=O)C(N)(c4ccccc4)C(F)(F)C(F)(F)F)CC3)CC2)cc1Cl (centres unmarked) [Example 2-123, 4-(4-{[1-(2-amino-3,3,4,4,4-pentafluoro-2-phenylbutanoyl)piperidin-4-yl]methyl}piperidin-1-yl)-2-chloro-N,N-dimethyl-benzamide] | 106% | 335 nM | 21% | 1470 nM | – | – | – | – | – | – | –
Cc1cc(N2CCC(CC3(C)CCN(C(=O)[C@](O)(c4cc(F)cc(Cl)c4)C(F)(F)F)CC3)CC2)ccc1C(=O)N(C)C [Example 2-75, 4-[4-({1-[(2R)-2-(3-chloro-5-fluorophenyl)-3,3,3-trifluoro-2-hydroxy-propanoyl]-4-methylpiperidin-4-yl}methyl)piperidin-1-yl]-N,N,2-trimethyl-benzamide] | 80% | 12 nM | 31% | 167 nM | – | – | – | – | – | – | –
CN(C)C(=O)c1ccc(N2CCC(OC3CCN(C(=O)C4(c5ccccc5)CCC4)CC3)CC2)cc1Cl [Example 2-27, 2-chloro-N,N-dimethyl-4-[4-({1-[(1-phenyl-cyclobutyl)carbonyl]piperidin-4-yl}oxy)piperidin-1-yl]benzamide] | 82% | 371 nM | 19% | 4620 nM | – | – | – | – | – | – | –
COc1cccc([C@@](O)(C(=O)N2CCC(CC3CCN(c4ccc(C(=O)N(C)C)c(Cl)c4)CC3)CC2)C(F)(F)F)c1 [Example 2-35, 2-chloro-N,N-dimethyl-4-[4-({1-[(2R)-3,3,3-trifluoro-2-hydroxy-2-(3-methoxyphenyl)propanoyl]piperidin-4-yl}methyl)piperidin-1-yl]benzamide] | 44% | 8 nM | 6% | – | NO IP | – | – | – | – | – | –
Cc1cc(N2CCC(CC3CCN(C(=O)[C@](O)(c4cccc(OC(C)C)c4)C(F)(F)F)CC3)CC2)ccc1C(=O)N(C)C [Example 2-147, N,N,2-trimethyl-4-{4-[(1-{(2R)-3,3,3-trifluoro-2-hydroxy-2-[3-(1-methylethoxy)phenyl]propanoyl}piperidin-4-yl)methyl]piperidin-1-yl}benzamide] | 52% | 19 nM | 7% | – | NO IP | – | – | – | – | – | –
CC(C)Oc1cccc(C(O)(C(=O)N2CCC(CC3CCN(c4ccc(C(=O)N(C)C)c(Cl)c4)CC3)CC2)C(F)(F)F)c1 (centres unmarked) [Example 2-82, 2-chloro-N,N-dimethyl-4-{4-[(1-{3,3,3-trifluoro-2-hydroxy-2-[3-(1-methyl-ethoxy)phenyl]propanoyl}piperidin-4-yl)methyl]piperidin-1-yl}benzamide] | 50% | 12 nM | 13% | – | NO IP | – | – | – | – | – | –
COc1cccc([C@@](O)(C(=O)N2CCC(CC3CCN(c4ccc(C(=O)N(C)C)c(Cl)c4)CC3)CC2)C(F)F)c1 [Example 2-106, 2-chloro-4-[4-({1-[(2R)-3,3-difluoro-2-hydroxy-2-(3-methoxy-phenyl)propanoyl]piperidin-4-yl}methyl)piperidin-1-yl]-N,N-dimethyl-benzamide] | 19% | 10 nM | 0% | – | NO IP | – | – | – | – | – | –
CCOc1cccc([C@@](O)(C(=O)N2CCC(C)(CC3CCN(c4ccc(C(=O)N(C)C)c(C)c4)CC3)CC2)C(F)(F)F)c1 [Example 2-79, 4-[4-({1-[(2R)-2-(3-ethoxy-phenyl)-3,3,3-trifluoro-2-hydroxy-propanoyl]-4-methylpiperidin-4-yl}methyl)piperidin-1-yl]-N,N,2-trimethyl-benzamide] | 30% | 40 nM | 0% | – | NO IP | – | – | – | – | – | –
COc1cccc([C@@](O)(C(=O)N2CCC(CC3CCN(c4ccc(C(=O)N(C)C)c(Cl)c4)CC3)CC2)C(C)C)c1 [Example 2-115, 2-chloro-4-[4-({1-[(2R)-2-hydroxy-2-(3-methoxy-phenyl)-3-methyl-butanoyl]piperidin-4-yl}methyl)piperidin-1-yl]-N,N-dimethyl-benzamide] | 30% | 53 nM | 0% | – | NO IP | – | – | – | – | – | –
CCOc1cccc([C@@](O)(C(=O)N2CCC(C)(CC3CCN(c4ccc(C(=O)N(C)C)c(Cl)c4)CC3)CC2)C(F)(F)F)c1 [Example 2-50, 2-chloro-4-[4-({1-[(2R) 2-(3-ethoxy-phenyl)-3,3,3-trifluoro-2-hydroxy-propanoyl]-4-methyl-piperidin-4-yl}methyl)piperidin-1-yl]-N,N-dimethyl-benzamide] | 29% | 8 nM | 0% | – | NO IP | – | – | – | – | – | –
CN(C)C(=O)c1ccc(N2CCC(CC3CN(S(=O)(=O)c4ccccc4)C3)CC2)nc1Cl [Example 14-1, 2-chloro-N,N-dimethyl-6-(4-((1-(phenylsulfonyl)azetidin-3-yl)methyl)piperidin-1-yl)nicotinamide] | – | – | – | – | – | – | – | 44 nM | 3430 nM | 111% | 55%
COc1cc(F)cc([C@@](O)(C(=O)N2CCC(CC3CCN(c4ccc(C(=O)N(C)C)c(C)c4)CC3)CC2)C(F)(F)F)c1 [Example 2-152, N,N,2-trimethyl-4-[4-({1-[(2R)-3,3,3-trifluoro-2-(3-fluoro-5-methoxyphenyl)-2-hydroxy-propanoyl]piperidin-4-yl}methyl)piperidin-1-yl]benzamide] | 74% | 11 nM | 18% | – | NO IP | – | – | – | – | – | –

The next lines start with results.

Emax [1, 3] | EC50 [1, 4] | Emax [2, 5] | EC50 [2, 6] | LXR alpha IP (nM) [2, 7] | Emax ([1]; efficacy in relation to reference dual agonist T0901317, read-out: LXR beta Activity @ max dose) | Emax ([2]; efficacy in relation to reference dual agonist T0901317, read-out: LXR alpha Activity @ max dose) | Compound | EC50 [1, 8] | EC50 [2, 9] | Emax ([1]; read-out: LXR beta Activity @ max dose) | Emax ([2]; read-out: LXR alpha Activity @ max dose)
54% | 1230 nM | 0% | – | NO IP | – | – | COc1cccc([C@@](O)(C(=O)N2CCC(CC3CN(c4ccc(C(=O)N(C)C)c(OC)n4)C3)CC2)C(F)(F)F)c1 [Example 7-23, 2-methoxy-N,N-dimethyl-6-[3-({1-[(2R)-3,3,3-trifluoro-2-hydroxy-2-(3-methoxyphenyl)propanoyl]piperidin-4-yl}methyl)azetidin-1-yl]pyridine-3-carboxamide] | – | – | – | –
– | – | – | – | – | 98% | 52% | NC(=O)c1ccc(N2CCC(CC3CCN(C(=O)C(O)(c4cc(F)cc(Cl)c4)C(F)(F)F)CC3)CC2)cc1Cl (centres unmarked) [Example 12-9, 2-chloro-4-[4-({1-[2-(3-chloro-5-fluorophenyl)-3,3,3-trifluoro-2-hydroxy-propanoyl]piperidin-4-yl}methyl)piperidin-1-yl]benzamide] | 8 nM | 47 nM | – | –
30% | 76 nM | 0% | – | NO IP | – | – | COc1cc(Cl)cc(C(O)(C(=O)N2CCC(CC3CCN(c4ccc(C(=O)N(C)C)c(Cl)n4)CC3)CC2)C(F)(F)F)c1 (centres unmarked) [Example 7-105, 2-chloro-6-[4-({1-[2-(3-chloro-5-methoxyphenyl)-3,3,3-trifluoro-2-hydroxypropanoyl]piperidin-4-yl}methyl)piperidin-1-yl]-N,N-dimethylpyridine-3-carboxamide] | – | – | – | –
54% | 13 nM | 11% | – | NO IP | – | – | CC(C)c1cccc(C(O)(C(=O)N2CCC(CC3CCN(c4ccc(C(=O)N(C)C)c(Cl)n4)CC3)CC2)C(F)(F)F)c1 (centres unmarked) [Example 7-84, 2-chloro-N,N-dimethyl-6-{4-[(1-{3,3,3-trifluoro-2-hydroxy-2-[3-(1-methylethyl)phenyl]propanoyl}piperidin-4-yl)methyl]piperidin-1-yl}pyridine-3-carboxamide] | – | – | – | –
72% | 1150 nM | 4% | – | NO IP | – | – | COc1cccc([C@@](O)(C(=O)N2CCC(CC3CN(c4ccc(C(=O)N(C)C)c(C)n4)C3)CC2)C(F)(F)F)c1 [Example 7-13, N,N,2-trimethyl-6-[3-({1-[(2R)-3,3,3-trifluoro-2-hydroxy-2-(3-methoxyphenyl)propanoyl]piperidin-4-yl}methyl)azetidin-1-yl]pyridine-3-carboxamide] | – | – | – | –
